From PubChem BioAssay AID1963828 (Molecular Pharmacology Branch, DTP, NCI, 2024)

Test system: 991263-137-R1-J2-PDC complex spheroid viability
Test: Anticancer human tumor 991263-137-R1-J2-PDC patient-derived colon adenocarcinoma cell line growth inhibition [POLQ]
Conditions: for IC50: curve of first compound; for viability, T/C: stronger effect = lower value
Method in brief: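 Complex spheroid viability model combining PDC tumour cells with endothelial (HUVEC) and MSC stromal cells. Novobiocin, ART-558 or RP6685 were tested singly and in combination with standard and investigational anticancer drugs. Each was titrated in half-log steps from near clinical Cmax, or from 10 microM where Cmax was unknown.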

[1] = second compound 0.0316 µM, first compound 0.0316 µM
[2] = second compound 0.0316 µM, first compound 0.1 µM
[3] = second compound 0.0316 µM, first compound 0.316 µM
[4] = second compound 0.0316 µM, first compound 1 µM
[5] = second compound 0.1 µM, first compound 0.0316 µM
[6] = second compound 0.1 µM, first compound 0.1 µM
[7] = second compound 0.1 µM, first compound 0.316 µM
[8] = second compound 0.1 µM, first compound 1 µM
[9] = second compound 0.316 µM, first compound 0.0316 µM
[10] = second compound 0.316 µM, first compound 0.1 µM
[11] = second compound 0.316 µM, first compound 0.316 µM
[12] = second compound 0.316 µM, first compound 1 µM
[13] = second compound 1 µM, first compound 0.0316 µM
[14] = second compound 1 µM, first compound 0.1 µM
[15] = second compound 1 µM, first compound 0.316 µM
[16] = second compound 1 µM, first compound 1 µM
[17] = second compound 3.16 µM, first compound 0.0316 µM
[18] = second compound 3.16 µM, first compound 0.1 µM
[19] = second compound 3.16 µM, first compound 0.316 µM
[20] = second compound 3.16 µM, first compound 1 µM
[21] = second compound 10 µM, first compound 0.0316 µM
[22] = second compound 10 µM, first compound 0.1 µM
[23] = second compound 10 µM, first compound 0.316 µM
[24] = second compound 10 µM, first compound 1 µM
[25] = second compound 0.0316 µM, first compound 3.16 µM
[26] = second compound 0.0316 µM, first compound 10 µM
[27] = second compound 0.1 µM, first compound 3.16 µM
[28] = second compound 0.1 µM, first compound 10 µM
[29] = second compound 0.316 µM, first compound 3.16 µM
[30] = second compound 0.316 µM, first compound 10 µM
[31] = second compound 1 µM, first compound 3.16 µM
[32] = second compound 1 µM, first compound 10 µM
[33] = second compound 3.16 µM, first compound 3.16 µM
[34] = second compound 3.16 µM, first compound 10 µM
[35] = second compound 10 µM, first compound 3.16 µM
[36] = second compound 10 µM, first compound 10 µM
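Also: spheroids exposed to compounds for 7 days before readout.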
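For viability, T/C in this document: 100% = DMSO vehicle control viability.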

SMILES: CCc1c2c(nc3ccc(O)cc13)-c1cc3c(c(=O)n1C2)COC(=O)[C@]3(O)CC + Cc1cccc(N(C)C(=O)C2C(O)CCN2c2nc(C)cc(C(F)(F)F)c2C#N)c1
- IC50 (second compound 0.0316 µM): 0.067 µM
- IC50 (second compound 0.1 µM): 0.1 µM
- IC50 (second compound 0.316 µM): 0.175 µM
- IC50 (second compound 1 µM): 0.0723 µM
- IC50 (second compound 3.16 µM): 0.105 µM
- IC50 (second compound 10 µM): 0.153 µM
- viability, T/C (second compound 0.0316 µM, first compound 0.00316 µM): 103%
- viability, T/C (second compound 0.0316 µM, first compound 0.01 µM): 91.3%
- viability, T/C [1]: 48.6%
- viability, T/C [2]: 53.7%
- viability, T/C [3]: 36.3%
- viability, T/C [4]: 27.8%
- viability, T/C (second compound 0.1 µM, first compound 0.00316 µM): 96.7%
- viability, T/C (second compound 0.1 µM, first compound 0.01 µM): 119%
- viability, T/C [5]: 67.2%
- viability, T/C [6]: 57.1%
- viability, T/C [7]: 36.1%
- viability, T/C [8]: 28.4%
- viability, T/C (second compound 0.316 µM, first compound 0.00316 µM): 97.6%
- viability, T/C (second compound 0.316 µM, first compound 0.01 µM): 96%
- viability, T/C [9]: 73.4%
- viability, T/C [10]: 60.1%
- viability, T/C [11]: 41%
- viability, T/C [12]: 33.6%
- viability, T/C (second compound 1 µM, first compound 0.00316 µM): 111%
- viability, T/C (second compound 1 µM, first compound 0.01 µM): 111%
- viability, T/C [13]: 64.3%
- viability, T/C [14]: 50.6%
- viability, T/C [15]: 48.7%
- viability, T/C [16]: 32.5%
- viability, T/C (second compound 3.16 µM, first compound 0.00316 µM): 109%
- viability, T/C (second compound 3.16 µM, first compound 0.01 µM): 92.5%
- viability, T/C [17]: 70.4%
- viability, T/C [18]: 53.5%
- viability, T/C [19]: 33.9%
- viability, T/C [20]: 36.6%
- viability, T/C (second compound 10 µM, first compound 0.00316 µM): 108%
- viability, T/C (second compound 10 µM, first compound 0.01 µM): 81.5%
- viability, T/C [21]: 67.9%
- viability, T/C [22]: 53.2%
- viability, T/C [23]: 46.2%
- viability, T/C [24]: 24.5%

SMILES: COc1cc(C2c3cc4c(cc3C(OC3OC5COC(C)OC5C(O)C3O)C3COC(=O)C23)OCO4)cc(OC)c1O (stereo unspecified) + Cc1cccc(N(C)C(=O)C2C(O)CCN2c2nc(C)cc(C(F)(F)F)c2C#N)c1
- IC50 (second compound 0.0316 µM): > 10 µM
- IC50 (second compound 0.1 µM): > 10 µM
- IC50 (second compound 0.316 µM): > 10 µM
- IC50 (second compound 1 µM): > 10 µM
- IC50 (second compound 3.16 µM): > 10 µM
- IC50 (second compound 10 µM): > 10 µM
- viability, T/C [1]: 115%
- viability, T/C [2]: 99%
- viability, T/C [3]: 87.1%
- viability, T/C [4]: 90.5%
- viability, T/C [25]: 102%
- viability, T/C [26]: 84.7%
- viability, T/C [5]: 95.2%
- viability, T/C [6]: 103%
- viability, T/C [7]: 75.8%
- viability, T/C [8]: 98.1%
- viability, T/C [27]: 86.3%
- viability, T/C [28]: 73.1%
- viability, T/C [9]: 104%
- viability, T/C [10]: 102%
- viability, T/C [11]: 109%
- viability, T/C [12]: 95.8%
- viability, T/C [29]: 94.4%
- viability, T/C [30]: 87.2%
- viability, T/C [13]: 104%
- viability, T/C [14]: 109%
- viability, T/C [15]: 105%
- viability, T/C [16]: 106%
- viability, T/C [31]: 84.8%
- viability, T/C [32]: 85.7%
- viability, T/C [17]: 97.2%
- viability, T/C [18]: 107%
- viability, T/C [19]: 92.3%
- viability, T/C [20]: 99.2%
- viability, T/C [33]: 102%
- viability, T/C [34]: 76.8%
- viability, T/C [21]: 117%
- viability, T/C [22]: 96.3%
- viability, T/C [23]: 73.6%
- viability, T/C [24]: 89.1%
- viability, T/C [35]: 84.9%
- viability, T/C [36]: 71.1%

SMILES: O=c1[nH]cc(F)c(=O)[nH]1 + Cc1cccc(N(C)C(=O)C2C(O)CCN2c2nc(C)cc(C(F)(F)F)c2C#N)c1
- IC50 (second compound 0.0316 µM): > 10 µM
- IC50 (second compound 0.1 µM): > 10 µM
- IC50 (second compound 0.316 µM): > 10 µM
- IC50 (second compound 1 µM): > 10 µM
- IC50 (second compound 3.16 µM): > 10 µM
- IC50 (second compound 10 µM): > 10 µM
- viability, T/C [1]: 102%
- viability, T/C [2]: 116%
- viability, T/C [3]: 94%
- viability, T/C [4]: 75.6%
- viability, T/C [25]: 74.8%
- viability, T/C [26]: 84.3%
- viability, T/C [5]: 107%
- viability, T/C [6]: 90.7%
- viability, T/C [7]: 79.6%
- viability, T/C [8]: 93.4%
- viability, T/C [27]: 85.8%
- viability, T/C [28]: 82.3%
- viability, T/C [9]: 124%
- viability, T/C [10]: 101%
- viability, T/C [11]: 93%
- viability, T/C [12]: 83.3%
- viability, T/C [29]: 77.2%
- viability, T/C [30]: 80.9%
- viability, T/C [13]: 110%
- viability, T/C [14]: 108%
- viability, T/C [15]: 97.3%
- viability, T/C [16]: 90.8%
- viability, T/C [31]: 85.4%
- viability, T/C [32]: 76%
- viability, T/C [17]: 108%
- viability, T/C [18]: 94.8%
- viability, T/C [19]: 102%
- viability, T/C [20]: 90.2%
- viability, T/C [33]: 82.5%
- viability, T/C [34]: 62.2%
- viability, T/C [21]: 115%
- viability, T/C [22]: 95.4%
- viability, T/C [23]: 94.1%
- viability, T/C [24]: 70%
- viability, T/C [35]: 85%
- viability, T/C [36]: 69.6%
